Assay results as given in patent publication US4409240A, “Derivatives of dihydroxybenzoic acid and pharmaceutical composition thereof” (Kureha Kagaku Kogyo Kabushiki Kaisha, priority 1981, dated 1983).

What was measured:
[1] = system: platelet aggregation (rabbit platelet rich plasma); assay: Inhibitory effect on platelet aggregation (induced by sodium arachidonate); assay type: cell-based; conditions: Oryctolagus cuniculus, average value, 1.5 mM of each Specimen, rabbit PRP, preincubated 37° C. 5 min, read-out: Inhibition rate of platelet aggregation
Protocol: Rabbit platelet rich plasma (PRP) was used for Aggregation Tests. PRP was prepared by centrifugation of blood collected from the ear vein of Rabbit and diluted into number-concentration 300,000/μl with platelet poor plasma. Platelet aggregation was induced by Sodium Arachidonate and monitored (measured) with a four channel platelet aggregation Tracer PAT-4A (Niko Bioscience Co., Japan). Aggregation Tracer tube containing 230 μl PRP was preincubated at 37° C. for 5 min with each Specimen.

[2] = system: polynuclear leukocyte migration; assay: Inhibitory effect on polynuclear leukocyte migration (Granuloma CMC pouch method); assay type: in vivo, rat (male, Donyru); conditions: average value; 100 mg p.o./kg body weight; 6 hours after the administration; rat CMC pouch
Protocol: After shearing the rat on the dorsum about 5 cm in diameter, 5 ml of air was hypodermically injected into the site to form a pouch. After 24 hours, 5 ml of aqueous 2% (w/v) solution of CMC sodium salt at 37° C. was injected into the pouch, and at the same time an aqueous solution of each Specimen was administered perorally to the rat.
After the injection of CMC, the liquid in the pouch was collected as the time passed by in an amount of 0.5 ml and stained. Then the number of polynuclear leukocyte migrated into the pouch was counted.

adjuvant arthritis = assay: Prophylactic effect on adjuvant arthritis; assay type: in vivo, rat (female JCL-SD); conditions: average value of prophylactic rate; 100 mg p.o./kg/day for continuous 14 days; rat
Protocol: Freund's complete adjuvant (0.6 mg/0.1 ml) was inoculated into the right hind paw of the etherized rat. After palinesthesia, each specimen was administered perorally once a day for 14 continuous days.

in vivo = conditions: mouse, in vivo, po
Source text: (§1) Acute toxicity was examined by administering perorally an aqueous solution of each Specimen to female JCL-ICR mouse of 5 to 6 weeks after birth. As the Specimen, trans-4-[N-(3',4'-dihydroxybenzoyl)aminomethyl]cyclohexane-1-carboxylic acid, 4-[N-(3',4'-dihydroxybenzoyl)amino]benzoic acid and 6-[N-(3',4'-dihydroxybenzoyl)amino]caproic acid were used.

female JCL-ICR mouse = assay: Acute toxicity; conditions: peroral, aqueous solution, female JCL-ICR mouse 5 to 6 weeks
Source text: as §1

Compound	inhibition at 1500 µM [1]	Inhibition rate of polynuclear leukocyte migration [2]	Prophylactic effect on adjuvant arthritis (adjuvant arthritis)	LD50 (in vivo)	abnormality on the mouse (female JCL-ICR mouse)
O=C(NC[C@H]1CC[C@H](C(=O)O)CC1)c1ccccc1O.[Na] [Sodium trans-4-(N-salicyloyl-aminomethyl)cyclohexane-1-carboxylic acid, reference compound]	10%	5%	5%	–	–
O=C(O)CCCCCNC(=O)c1ccc(O)c(O)c1 [6-[N-(3',4'-dihydroxybenzoyl)amino]caproic acid]	–	–	–	> 3000 mg/kg	no abnormality on the mouse was found
O=C(NC[C@H]1CC[C@H](C(=O)O)CC1)c1ccc(O)c(O)c1 [trans-4-[N-(3',4'-dihydroxybenzoyl)aminomethyl]cyclohexane-1-carboxylic acid]	100%	35%	30%	> 3000 mg/kg	no abnormality on the mouse was found
O=C(O)c1ccc(NC(=O)c2ccc(O)c(O)c2)cc1 [4-[N-(3',4'-dihydroxybenzoyl)amino]benzoic acid]	–	–	–	> 3000 mg/kg	no abnormality on the mouse was found
